Experimental data: patent publication US6576657B2, “Amidino derivatives and their use as thrombin inhibitors” (AstraZeneca AB, priority 1997, dated 2003)

Molecular target: T1, Human thrombin (Homo sapiens, UniProt P00734)
T1 construct: conversion of the proenzyme prothrombin to the active enzyme thrombin; purchased Sigma Chem Co T 6769
Assay: Test A: determination of thrombin clotting time (TT)
Type: biochemical
Conditions: concentration of inhibitor that doubles the thrombin clotting time for human plasma
Experimental: Determination of Thrombin Clotting Time (TT)
The inhibitor solution (25 μL) was incubated with plasma (25 μL) for three minutes. Human thrombin (T 6769; Sigma Chem Co) in buffer solution, pH 7.4 (25 μL) was then added and the clotting time measured in an automatic device (KC 10; Amelung).
The clotting time in seconds was plotted against the inhibitor concentration, and the IC50TT was determined by interpolation.
IC50TT is the concentration of inhibitor in the test that doubles the thrombin clotting time for human plasma.

Compound | IC50 [nM]
COc1ccc2c(c1)C(O)(C(=O)N1CCC1C(=O)N(C)Cc1ccc(C(=N)N)cc1)CCC2 (single isomer, unassigned) [Example 37, (S)- or (R)-1-Hydroxy-7-methoxytetralin-1-yl-C(O)-Aze-N(Me)-Bzl-4-C(NH2)NH×HOAc] | < 300
N=C(N)c1ccc(CNC(=O)[C@@H]2CCN2C(=O)C2(O)c3ccccc3-c3ccccc32)cc1 [Example 38, 9-Hydroxyfluoren-9-yl-C(O)-Aze-Pab×HOAc] | < 300
